{"source": "BigSolDB 2.1"}
{"smiles": "O=C(O)c1cccc2ccccc12", "values": [{"measurement": "solubility (mole fraction)", "setting": "in acetic acid, 293.15 K", "value": 0.0172}, {"measurement": "solubility (mole fraction)", "setting": "in acetic acid, 298.15 K", "value": 0.0194}, {"measurement": "solubility (mole fraction)", "setting": "in acetic acid, 303.15 K", "value": 0.0224}, {"measurement": "solubility (mole fraction)", "setting": "in acetic acid, 308.15 K", "value": 0.0257}, {"measurement": "solubility (mole fraction)", "setting": "in acetic acid, 313.15 K", "value": 0.0296}, {"measurement": "solubility (mole fraction)", "setting": "in acetic acid, 318.15 K", "value": 0.0334}, {"measurement": "solubility (mole fraction)", "setting": "in acetic acid, 323.15 K", "value": 0.0383}, {"measurement": "solubility (mole fraction)", "setting": "in acetic acid, 328.15 K", "value": 0.0439}, {"measurement": "solubility (mole fraction)", "setting": "in acetic acid, 333.15 K", "value": 0.0503}, {"measurement": "solubility (mole fraction)", "setting": "in ethanol, 293.15 K", "value": 0.0282}, {"measurement": "solubility (mole fraction)", "setting": "in ethanol, 298.15 K", "value": 0.0311}, {"measurement": "solubility (mole fraction)", "setting": "in ethanol, 303.15 K", "value": 0.0356}, {"measurement": "solubility (mole fraction)", "setting": "in ethanol, 308.15 K", "value": 0.0402}, {"measurement": "solubility (mole fraction)", "setting": "in ethanol, 313.15 K", "value": 0.0457}, {"measurement": "solubility (mole fraction)", "setting": "in ethanol, 318.15 K", "value": 0.0513}, {"measurement": "solubility (mole fraction)", "setting": "in ethanol, 323.15 K", "value": 0.0574}, {"measurement": "solubility (mole fraction)", "setting": "in ethanol, 328.15 K", "value": 0.0654}, {"measurement": "solubility (mole fraction)", "setting": "in ethanol, 333.15 K", "value": 0.0738}, {"measurement": "solubility (mole fraction)", "setting": "in ethyl acetate, 293.15 K", "value": 0.0294}, {"measurement": "solubility (mole fraction)", "setting": "in ethyl acetate, 298.15 K", "value": 0.0329}, {"measurement": "solubility (mole fraction)", "setting": "in ethyl acetate, 303.15 K", "value": 0.0374}, {"measurement": "solubility (mole fraction)", "setting": "in ethyl acetate, 308.15 K", "value": 0.0418}, {"measurement": "solubility (mole fraction)", "setting": "in ethyl acetate, 313.15 K", "value": 0.0472}, {"measurement": "solubility (mole fraction)", "setting": "in ethyl acetate, 318.15 K", "value": 0.0534}, {"measurement": "solubility (mole fraction)", "setting": "in ethyl acetate, 323.15 K", "value": 0.06}, {"measurement": "solubility (mole fraction)", "setting": "in ethyl acetate, 328.15 K", "value": 0.0673}, {"measurement": "solubility (mole fraction)", "setting": "in ethyl acetate, 333.15 K", "value": 0.0754}, {"measurement": "solubility (mole fraction)", "setting": "in isobutanol, 293.15 K", "value": 0.0187}, {"measurement": "solubility (mole fraction)", "setting": "in isobutanol, 298.15 K", "value": 0.0213}, {"measurement": "solubility (mole fraction)", "setting": "in isobutanol, 303.15 K", "value": 0.0257}, {"measurement": "solubility (mole fraction)", "setting": "in isobutanol, 308.15 K", "value": 0.0311}, {"measurement": "solubility (mole fraction)", "setting": "in isobutanol, 313.15 K", "value": 0.0364}, {"measurement": "solubility (mole fraction)", "setting": "in isobutanol, 318.15 K", "value": 0.0427}, {"measurement": "solubility (mole fraction)", "setting": "in isobutanol, 323.15 K", "value": 0.0502}, {"measurement": "solubility (mole fraction)", "setting": "in isobutanol, 328.15 K", "value": 0.0588}, {"measurement": "solubility (mole fraction)", "setting": "in isobutanol, 333.15 K", "value": 0.0685}, {"measurement": "solubility (mole fraction)", "setting": "in isopropanol, 293.15 K", "value": 0.0251}, {"measurement": "solubility (mole fraction)", "setting": "in isopropanol, 298.15 K", "value": 0.0284}, {"measurement": "solubility (mole fraction)", "setting": "in isopropanol, 303.15 K", "value": 0.034}, {"measurement": "solubility (mole fraction)", "setting": "in isopropanol, 308.15 K", "value": 0.0401}, {"measurement": "solubility (mole fraction)", "setting": "in isopropanol, 313.15 K", "value": 0.0472}, {"measurement": "solubility (mole fraction)", "setting": "in isopropanol, 318.15 K", "value": 0.0544}, {"measurement": "solubility (mole fraction)", "setting": "in isopropanol, 323.15 K", "value": 0.0636}, {"measurement": "solubility (mole fraction)", "setting": "in isopropanol, 328.15 K", "value": 0.0731}, {"measurement": "solubility (mole fraction)", "setting": "in isopropanol, 333.15 K", "value": 0.0852}, {"measurement": "solubility (mole fraction)", "setting": "in methanol, 293.15 K", "value": 0.0206}, {"measurement": "solubility (mole fraction)", "setting": "in methanol, 298.15 K", "value": 0.0229}, {"measurement": "solubility (mole fraction)", "setting": "in methanol, 303.15 K", "value": 0.0269}, {"measurement": "solubility (mole fraction)", "setting": "in methanol, 308.15 K", "value": 0.0304}, {"measurement": "solubility (mole fraction)", "setting": "in methanol, 313.15 K", "value": 0.0351}, {"measurement": "solubility (mole fraction)", "setting": "in methanol, 318.15 K", "value": 0.0392}, {"measurement": "solubility (mole fraction)", "setting": "in methanol, 323.15 K", "value": 0.0443}, {"measurement": "solubility (mole fraction)", "setting": "in methanol, 328.15 K", "value": 0.0496}, {"measurement": "solubility (mole fraction)", "setting": "in methanol, 333.15 K", "value": 0.0557}, {"measurement": "solubility (mole fraction)", "setting": "in methyl acetate, 293.15 K", "value": 0.0257}, {"measurement": "solubility (mole fraction)", "setting": "in methyl acetate, 298.15 K", "value": 0.0301}, {"measurement": "solubility (mole fraction)", "setting": "in methyl acetate, 303.15 K", "value": 0.0335}, {"measurement": "solubility (mole fraction)", "setting": "in methyl acetate, 308.15 K", "value": 0.0387}, {"measurement": "solubility (mole fraction)", "setting": "in methyl acetate, 313.15 K", "value": 0.043}, {"measurement": "solubility (mole fraction)", "setting": "in methyl acetate, 318.15 K", "value": 0.0498}, {"measurement": "solubility (mole fraction)", "setting": "in methyl acetate, 323.15 K", "value": 0.055}, {"measurement": "solubility (mole fraction)", "setting": "in methyl acetate, 328.15 K", "value": 0.0622}, {"measurement": "solubility (mole fraction)", "setting": "in n-butanol, 293.15 K", "value": 0.03}, {"measurement": "solubility (mole fraction)", "setting": "in n-butanol, 298.15 K", "value": 0.0344}, {"measurement": "solubility (mole fraction)", "setting": "in n-butanol, 303.15 K", "value": 0.0389}, {"measurement": "solubility (mole fraction)", "setting": "in n-butanol, 308.15 K", "value": 0.0444}, {"measurement": "solubility (mole fraction)", "setting": "in n-butanol, 313.15 K", "value": 0.0514}, {"measurement": "solubility (mole fraction)", "setting": "in n-butanol, 318.15 K", "value": 0.0605}, {"measurement": "solubility (mole fraction)", "setting": "in n-butanol, 323.15 K", "value": 0.0684}, {"measurement": "solubility (mole fraction)", "setting": "in n-butanol, 328.15 K", "value": 0.079}, {"measurement": "solubility (mole fraction)", "setting": "in n-butanol, 333.15 K", "value": 0.0901}, {"measurement": "solubility (mole fraction)", "setting": "in n-propanol, 293.15 K", "value": 0.027}, {"measurement": "solubility (mole fraction)", "setting": "in n-propanol, 298.15 K", "value": 0.0302}, {"measurement": "solubility (mole fraction)", "setting": "in n-propanol, 303.15 K", "value": 0.0351}, {"measurement": "solubility (mole fraction)", "setting": "in n-propanol, 308.15 K", "value": 0.0407}, {"measurement": "solubility (mole fraction)", "setting": "in n-propanol, 313.15 K", "value": 0.0461}, {"measurement": "solubility (mole fraction)", "setting": "in n-propanol, 318.15 K", "value": 0.0536}, {"measurement": "solubility (mole fraction)", "setting": "in n-propanol, 323.15 K", "value": 0.0604}, {"measurement": "solubility (mole fraction)", "setting": "in n-propanol, 328.15 K", "value": 0.0702}, {"measurement": "solubility (mole fraction)", "setting": "in n-propanol, 333.15 K", "value": 0.0795}]}
